One data set concerns the target T1, P-Selectin/PSGL (Homo sapiens, UniProt P16109).
T1 construct: purchased R&D Systems (Minneapolis, Minn.)
Put plainly: U937 monocyte binding to P-selectin (cell binding assay). The settings on record: Table 2; U937 binding to P-selectin-Fc. The protocol: (§1) Cell Binding Assays. The effect of SAGEs on binding of U937 monocytes to P-selectin or RAGE was studied in high-bind micro plates coated with 8 μg/ml protein A ([…]) in 0.2 M carbonate-bicarbonate buffer (pH 9.4). Plates were washed with phosphate buffered saline containing 1% BSA (PBS-BSA), and P-selectin-Fc or RAGE-Fc chimera (50 μL containing 1 μg) was added to each well and incubated for 2 h at room temperature or overnight at 4° C., respectively. Following incubation, wells were washed twice with PBS-BSA. […] As a negative control, 50 μL of 10 mM EDTA was added to select wells to prevent cell binding through sequestration of calcium. At the end of the incubation period, 50 μL of U937 cells (10^5 cells/well, calcein-labeled according to manufacturer's instructions) were added to each well and plates were incubated an additional 30 min at room temperature. The wells were then washed thrice with PBS, and bound cells were lysed by addition of 100 μL of Tris-TritonX-100 containing buffer. Fluorescence was measured on a microplate reader using excitation of 494 nm and emission of 517 nm.

Another data set addresses T2, RAGE/Mac-1 (Homo sapiens, UniProt Q15109).
T2 construct: purchased R&D Systems (Minneapolis, Minn.)
Put plainly: U937 monocyte binding to RAGE (cell binding assay). Conditions: Table 2; U937 binding to RAGE-Fc. The protocol:
as §1

The next data set addresses T3, RAGE/CML-BSA (Homo sapiens, UniProt Q15109).
T3 construct: purchased R&D Systems (Minneapolis, Minn.)
The data set can be described thus: Solid phase binding assay, RAGE to CML-BSA. Conditions: Table 2. How it is done:
(§2) Solid phase binding assays. Solid phase binding assays were used to study the ability of SAGEs to inhibit RAGE binding to its ligands. For studies of the effect of SAGEs on RAGE binding to its ligands, polyvinyl 96-well plates were coated with 5 μg/well of specific ligand (CML-BSA, HMGB-I or S100b calgranulin). Plates were incubated overnight at 4° C. and washed thrice with PBS-0.05% Tween-20 (PBST). Separately, RAGE-Fc chimera (100 μL containing 0.5 μg/ml in PBST-0.1% BSA) was incubated with an equal volume of serially diluted SAGEs (0.001 to 1,000 μg/ml in PBST-BSA) overnight at 4° C. The following day, 50 μL of RAGE-SAGE mix was transferred to each respective ligand-coated well and incubated at 37° C. for 2 h. Wells were then washed four times with PBST. To detect bound RAGE, 50 μL of anti-RAGE antibody (0.5 μg/ml) was added to each well, the mixture was incubated for 1 h at room temperature, and wells were washed again four times with PBST. Horse-radish peroxidase conjugated secondary antibody (1:10,000 antibody dilution in PBST; 50 μL per well) was added, wells were incubated for 1 h at room temperature, and then washed once with PBST. A colorimetric reaction was initiated by addition of 50 μL of tetramethyl benzidine chromogen (TMB single solution chromogen) and terminated after 15 min by addition of 50 μL of 1 N HCl. Absorbance at 450 nm was read using an automated microplate reader.

The target of the next data set is T4, RAGE/S100B (Homo sapiens, UniProt Q15109).
T4 construct: purchased R&D Systems (Minneapolis, Minn.)
The data set can be described thus: Solid phase binding assay, RAGE to S100b calgranulin. Conditions: Table 2. The protocol: as §2

The target of the next data set is T5, human leukocyte elastase (Homo sapiens, UniProt P08246).
T5 sequence (P08246 30-267): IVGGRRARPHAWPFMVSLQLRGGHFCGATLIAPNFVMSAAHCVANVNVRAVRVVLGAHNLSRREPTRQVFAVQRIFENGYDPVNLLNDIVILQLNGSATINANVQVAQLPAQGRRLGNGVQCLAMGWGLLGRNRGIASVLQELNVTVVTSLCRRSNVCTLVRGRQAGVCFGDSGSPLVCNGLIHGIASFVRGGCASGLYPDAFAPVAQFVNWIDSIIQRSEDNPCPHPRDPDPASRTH
Put plainly: Human leukocyte elastase activity assay, chromogenic substrate. Format: biochemical. Conditions: for Leukocyte Elastase: Table 2. An excerpt:
Enzymatic assays. […] Nat Biotech 26:669-675, 2008).

Data set [1] concerns the target T6, Hageman factor (Factor XII) (Homo sapiens, UniProt P00748).
T6 sequence (P00748 20-615): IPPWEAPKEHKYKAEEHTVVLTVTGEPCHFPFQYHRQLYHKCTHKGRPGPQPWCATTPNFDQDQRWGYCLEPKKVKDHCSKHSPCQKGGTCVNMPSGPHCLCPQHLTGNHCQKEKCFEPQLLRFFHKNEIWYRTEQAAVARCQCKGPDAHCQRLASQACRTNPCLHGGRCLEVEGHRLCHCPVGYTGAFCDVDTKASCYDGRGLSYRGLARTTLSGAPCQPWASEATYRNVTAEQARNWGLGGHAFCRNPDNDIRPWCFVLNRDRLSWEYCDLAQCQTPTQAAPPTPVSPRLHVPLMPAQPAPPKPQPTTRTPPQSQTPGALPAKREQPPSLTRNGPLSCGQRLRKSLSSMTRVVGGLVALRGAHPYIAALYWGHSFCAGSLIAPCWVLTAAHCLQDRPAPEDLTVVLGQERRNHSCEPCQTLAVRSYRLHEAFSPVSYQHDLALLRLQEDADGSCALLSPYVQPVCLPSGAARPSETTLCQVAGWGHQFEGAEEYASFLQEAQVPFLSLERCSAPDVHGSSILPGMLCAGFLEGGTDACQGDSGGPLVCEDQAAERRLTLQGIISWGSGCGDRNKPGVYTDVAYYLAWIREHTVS
Protocol: Enzymatic assays. […] Pooled human plasma (5 μl) was incubated with 100 μl of SAHA (0.1 to 1000 μg/ml) in 0.05 M HEPES containing Triton X-100 for 5 min at 5° C.
SAGEs were screened for their ability to stimulate intrinsic coagulation (activation of Hageman factor). Pooled human plasma was incubated with heparin or low molecular weight (Lmw) sulfated and fluoroalkylated HAs (Lmw-OSFHA-1, Lmw-OSFHA-2) and amidolytic activity was determined using the substrate D-cyclohydrotyrosyl-Gly-Arg-p-NA.

In the next data set the target is T7, RAGE/HMGB1 (Homo sapiens, UniProt Q15109).
T7 construct: purchased R&D Systems (Minneapolis, Minn.)
Put plainly: Solid phase binding assay, RAGE to HMGB-1 (amphoterin). Conditions: Table 2. The protocol: as §2

Data set [2] deals with human neonatal epidermal keratinocytes. Put plainly: Keratinocyte proliferation assay. Format: cell-based. The settings on record: high molecular weight derivatives, 100 μg/ml, FIG. 8. How it is done:
Fourth, SAGEs are potent inhibitors of the proliferation of human keratinocytes. In these assays human neonatal epidermal keratinocytes were cultured in the presence and absence of SAGEs or other inhibitors, and proliferation was measured by adding a dye that is reduced in direct proportion to the number of viable cells present.

The subject of another data set is nHEK cells. Put plainly: Cytotoxicity (MTS). Format: cell-based, human. The settings on record: up to 10 mg/ml.
The next data set concerns LL-37 injected skin. Put plainly: SAGE topical treatment LL-37 rosacea model. In kind it is in vivo, Balb/c mice. Conditions: topical administration. The protocol:
SAGE topical treatment rosacea model. Balb/c mice were shaved […] area of skin on the back. We then began topical application of a hyaluronan-cased emollient containing 5% SAGEs (active emollient) or hyaluronic acid based emollient alone to this area of skin every 12 hours. Twenty-four hours later, we injected 40 μL of vehicle (PBS) or cationic peptide (at 320 μM concentration) subcutaneously into the shaved skin in the manner described previously. Injections and topical emollient applications were repeated every 12 h thereafter. Forty-eight hours after the initial injection (four injections in total), animals were lightly anesthetized as described previously. […] The intensity of erythema was assessed as a redness score (from 1 to 5), and the area of erythema was measured with calipers. […]
Myeloperoxidase (MPO) assay. […] Tissue MPO activity was measured using a method by Suzuki et. al. (Suzuki K, Ota H, Sasagawa S, Sakatani T, Fujikura T. Assay method for myeloperoxidase in human polymorphonuclear leukocytes. Anal Biochem 132:345-352, 1983) as modified by Young et. al. (Young J M, Spires D A, Bedord C J, Wagner B, Ballaron S J, De oung L M. The mouse ear inflammatory response to typical arachidonic acid. J Invest Dermatol 82:367-371, 1984). […] The homogenate was transferred quantitatively to a microcentrifuge tube with an additional 0.75 mL HTAB in PBS. […]

T1 sequence (P16109 with tags, fused parts or gaps limits assumed): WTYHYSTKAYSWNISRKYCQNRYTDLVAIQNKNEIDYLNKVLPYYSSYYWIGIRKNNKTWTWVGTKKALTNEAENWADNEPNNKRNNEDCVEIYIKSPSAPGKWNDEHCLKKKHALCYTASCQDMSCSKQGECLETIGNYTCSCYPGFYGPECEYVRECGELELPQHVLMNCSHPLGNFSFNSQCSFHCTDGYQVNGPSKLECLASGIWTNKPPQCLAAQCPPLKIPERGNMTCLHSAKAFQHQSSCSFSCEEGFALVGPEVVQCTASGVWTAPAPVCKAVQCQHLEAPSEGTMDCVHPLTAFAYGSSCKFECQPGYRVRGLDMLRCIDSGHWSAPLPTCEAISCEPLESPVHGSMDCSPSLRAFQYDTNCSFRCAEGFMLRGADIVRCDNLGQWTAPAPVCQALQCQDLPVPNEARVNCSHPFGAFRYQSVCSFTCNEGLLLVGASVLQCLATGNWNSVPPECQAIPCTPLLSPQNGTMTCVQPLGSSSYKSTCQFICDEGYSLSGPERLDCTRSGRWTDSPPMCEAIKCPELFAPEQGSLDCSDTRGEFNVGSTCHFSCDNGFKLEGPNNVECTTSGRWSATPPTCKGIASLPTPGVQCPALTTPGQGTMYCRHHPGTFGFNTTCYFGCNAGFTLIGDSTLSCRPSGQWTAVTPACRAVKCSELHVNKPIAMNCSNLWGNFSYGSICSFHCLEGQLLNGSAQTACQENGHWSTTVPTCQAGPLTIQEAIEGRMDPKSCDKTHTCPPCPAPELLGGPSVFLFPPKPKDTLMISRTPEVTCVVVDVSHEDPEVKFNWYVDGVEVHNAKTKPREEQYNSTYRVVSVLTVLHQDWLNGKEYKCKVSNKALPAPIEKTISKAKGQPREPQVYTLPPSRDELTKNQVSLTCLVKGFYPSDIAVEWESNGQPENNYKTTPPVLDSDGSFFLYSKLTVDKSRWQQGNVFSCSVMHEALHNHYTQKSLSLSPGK
T4 sequence (Q15109 with tags, fused parts or gaps limits assumed): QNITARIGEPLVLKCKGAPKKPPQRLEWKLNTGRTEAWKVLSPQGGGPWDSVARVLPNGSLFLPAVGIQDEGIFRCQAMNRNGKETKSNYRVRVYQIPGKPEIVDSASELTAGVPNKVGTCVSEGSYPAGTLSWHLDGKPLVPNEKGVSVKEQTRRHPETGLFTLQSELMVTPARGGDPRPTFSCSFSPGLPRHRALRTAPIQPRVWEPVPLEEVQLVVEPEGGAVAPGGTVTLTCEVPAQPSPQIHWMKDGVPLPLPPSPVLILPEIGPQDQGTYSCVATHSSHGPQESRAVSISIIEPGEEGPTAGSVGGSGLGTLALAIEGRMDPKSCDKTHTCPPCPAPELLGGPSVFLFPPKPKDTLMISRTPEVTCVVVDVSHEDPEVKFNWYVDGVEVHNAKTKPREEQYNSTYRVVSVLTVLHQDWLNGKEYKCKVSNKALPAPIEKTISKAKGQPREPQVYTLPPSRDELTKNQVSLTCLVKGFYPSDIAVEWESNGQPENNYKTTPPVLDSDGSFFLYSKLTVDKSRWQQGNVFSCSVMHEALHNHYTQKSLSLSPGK
T3 sequence (Q15109 with tags, fused parts or gaps limits assumed): as above
T2 sequence (Q15109 with tags, fused parts or gaps limits assumed): as above
T7 sequence (Q15109 with tags, fused parts or gaps limits assumed): as above

For the substance P—OSFHA-1(DS 2) [GM-231201], on P-Selectin/PSGL, the P-Selectin/PSGL was found to be 0.126 µg/mL. On RAGE/Mac-1, this substance yielded an RAGE/Mac-1 of 28.4 µg/mL. The substance further yielded an RAGE/CML-BSA on RAGE/CML-BSA of 2.579 µg/mL. This substance gave an RAGE/S100B at RAGE/S100B of 8.82 µg/mL. The “Leukocyte Elastase” value on human leukocyte elastase worked out at 0.487 µg/mL. The “Hageman Factor” value in [1] is 400 µg/mL.
As a reminder, the IC50 is the concentration at which inhibition is half-maximal. For P—OSMeHA(DS 1) [GM-131101], on P-Selectin/PSGL, the P-Selectin/PSGL is 5.61 µg/mL. At RAGE/Mac-1, the RAGE/Mac-1 stood at 0.51 µg/mL. This substance gave an RAGE/CML-BSA at RAGE/CML-BSA of 6.09 µg/mL. In addition, the RAGE/S100B on RAGE/S100B came out at 31.069 µg/mL. At RAGE/HMGB1, the RAGE/HMGB1 amounted to 2.68 µg/mL. The half-inhibitory concentration (IC50) on human leukocyte elastase (FIG. 4, read-out: IC50 for HLE) came out at 3.46 nM. For the same substance, at human leukocyte elastase, the “Leukocyte Elastase” value turned out to be 0.285 µg/mL. The “inhibition of keratinocyte proliferation” value in data set [2] is recorded as “less active”. Moreover, the “toxicity to nHEK cells” value in the data set with nHEK cells was “non-toxic”.
Take P—OSFHA-2(DS 2) [GM-331201]: the RAGE/CML-BSA on RAGE/CML-BSA turned out to be 1.682 µg/mL. In addition, the RAGE/S100B on RAGE/S100B came out at 2.28 µg/mL. For the same substance, the “Leukocyte Elastase” value at human leukocyte elastase came out at 0.353 µg/mL. For the same substance, the “Hageman Factor” value in [1] came out at 40 µg/mL.
Turning to P—OSFHA-1(DS 1) [GM-231101], the P-Selectin/PSGL on P-Selectin/PSGL was determined as 12.048 µg/mL. In addition, the RAGE/S100B on RAGE/S100B amounted to 14.6 µg/mL. The “Leukocyte Elastase” value on human leukocyte elastase amounted to 0.185 µg/mL. The “Hageman Factor” value in [1] stood at 400 µg/mL.
The corresponding values for P—OSFHA-2(DS 1) [GM-331101] are 8.958 µg/mL, 4.557 µg/mL, 0.375 µg/mL and 400 µg/mL.
As to “Hyaluronic Acid [HA, reference compound]”, the “inflammation and MPO activities, SAGE vs. HA” value in the data set with LL-37 injected skin is given as “did not alleviate inflammation”.
Consider P—OSMeHA(DS 2) [GM-131201], for which the P-Selectin/PSGL on P-Selectin/PSGL stood at 0.5 µg/mL. Also, the RAGE/Mac-1 on RAGE/Mac-1 was 0.3 µg/mL. At RAGE/CML-BSA, this substance came in with an RAGE/CML-BSA of 0.044 µg/mL. On RAGE/S100B, this substance returned an RAGE/S100B of 0.06 µg/mL. Also, the “Leukocyte Elastase” value at human leukocyte elastase was found to be 0.42 µg/mL. In addition, the “Hageman Factor” value in data set [1] came out at 0.4 µg/mL.

The values above are taken from US8399430B2, “Alkylated semi synthetic glycosaminoglycosan ethers, and methods for making and using thereof” (University of Utah Research Foundation, priority 2008, dated 2013).
